Some test systems named below: SN12C renal; OVCAR-8 ovarian; SR leukemia; UACC-257 melanoma; HOP-92 NSCLC; SK-MEL-2 melanoma; MCF7 breast; NCI-H522 lung; DU-145 prostate; NCI-H460 lung.
Common to all, as to test: NCI anticancer screen, dose series, 48 h

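The compound was tested at five concentrations on cells cultured in 96-well plates, with a 48-hour exposure period. GI50 = concentration required for 50% inhibition of growth. The concentration for full growth arrest is given as TGI.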

Regarding `[N-]=[N+]=NCCCn1c2c(c3ccc([N+](=O)[O-])cc3c1=O)C(=O)c1cc(-c3ccccc3)ccc1-2`, the GI50 in the assay on SN12C renal was more than 100 µM; with OVCAR-8 ovarian, more than 100 µM; with SR leukemia, 37.2 µM; with UACC-257 melanoma, more than 100 µM; with HOP-92 NSCLC it was more than 100 µM; with SK-MEL-2 melanoma it was more than 100 µM. In addition, the GI50 with MCF7 breast, in the assay with NCI-H522 lung, in the assay on DU-145 prostate and in the assay with NCI-H460 lung was more than 100 µM in each case. Further, the TGI with SN12C renal, with OVCAR-8 ovarian, with SR leukemia, with UACC-257 melanoma, in the assay on HOP-92 NSCLC and in the assay with SK-MEL-2 melanoma was more than 100 µM in each case. Also, the TGI in the assay with MCF7 breast, with NCI-H522 lung, with DU-145 prostate and in the assay with NCI-H460 lung was more than 100 µM each time.
Turning to `COc1cc2c3c(n(CCCNCCCNCCN)c(=O)c2cc1OC)-c1cc2c(cc1C3=O)OCO2`, the GI50 was 19.8 µM with SN12C renal; 35.4 µM in the assay with OVCAR-8 ovarian; 9.86 µM in the assay on SR leukemia; more than 100 µM with UACC-257 melanoma; 39.7 µM in the assay on HOP-92 NSCLC; more than 100 µM with SK-MEL-2 melanoma. Besides, the GI50 is 32.5 µM in the assay with MCF7 breast, 15.3 µM with NCI-H522 lung, 51.9 µM in the assay with DU-145 prostate and more than 100 µM in the assay with NCI-H460 lung. In addition, the TGI with SN12C renal is 64.3 µM; in the assay with OVCAR-8 ovarian, more than 100 µM; in the assay with SR leukemia, 43.9 µM; with UACC-257 melanoma it was more than 100 µM; with HOP-92 NSCLC it was more than 100 µM; in the assay with SK-MEL-2 melanoma, more than 100 µM. Besides, the TGI in the assay on MCF7 breast was more than 100 µM; with NCI-H522 lung it was 85.1 µM; in the assay on DU-145 prostate, more than 100 µM; in the assay on NCI-H460 lung it was more than 100 µM.

The values are drawn from PubChem BioAssay (NCI).
